Drawing on ChEMBL document CHEMBL5653615 (J Biol Chem, 2013), this text covers inhibition for 2 molecules.

Each structure is given as a SMILES string.

Experiment [1] deals with T1, Serine/threonine-protein kinase NLK (Homo sapiens) (UniProt Q9UBE8).
T1 sequence (whole entry): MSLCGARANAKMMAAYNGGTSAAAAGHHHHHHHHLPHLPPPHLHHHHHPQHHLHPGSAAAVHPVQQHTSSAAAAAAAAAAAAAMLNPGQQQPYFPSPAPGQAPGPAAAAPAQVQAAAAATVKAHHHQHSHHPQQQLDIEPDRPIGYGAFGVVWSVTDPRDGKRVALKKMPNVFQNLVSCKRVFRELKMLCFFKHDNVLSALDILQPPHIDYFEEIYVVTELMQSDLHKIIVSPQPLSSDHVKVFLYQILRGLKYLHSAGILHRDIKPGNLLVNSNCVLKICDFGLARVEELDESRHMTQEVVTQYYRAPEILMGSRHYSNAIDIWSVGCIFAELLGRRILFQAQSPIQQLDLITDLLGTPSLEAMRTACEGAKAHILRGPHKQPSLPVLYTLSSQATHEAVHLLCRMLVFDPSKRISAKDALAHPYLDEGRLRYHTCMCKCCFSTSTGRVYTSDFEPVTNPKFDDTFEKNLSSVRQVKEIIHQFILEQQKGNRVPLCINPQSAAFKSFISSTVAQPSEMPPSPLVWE
The experiment can be described thus: Inhibition of human NLK at 18.6 nM by HotSpot assay relative to control.

The target of experiment [2] is CDK9/cyclin T1 (Homo sapiens) (UniProt O60563+P50750). The experiment is described as follows: Inhibition of human CDK9/cyclin T1 at 18.6 nM by HotSpot assay relative to control. The class given is protein-complex assay.
Experiment [3] addresses Casein kinase I isoform alpha (Homo sapiens) (UniProt P48729). The experiment is described as follows: Inhibition of human CK1a1 at 18.6 nM by HotSpot assay relative to control.
Experiment [4] addresses T2, Dual specificity tyrosine-phosphorylation-regulated kinase 3 (Homo sapiens) (UniProt O43781).
T2 sequence (whole entry): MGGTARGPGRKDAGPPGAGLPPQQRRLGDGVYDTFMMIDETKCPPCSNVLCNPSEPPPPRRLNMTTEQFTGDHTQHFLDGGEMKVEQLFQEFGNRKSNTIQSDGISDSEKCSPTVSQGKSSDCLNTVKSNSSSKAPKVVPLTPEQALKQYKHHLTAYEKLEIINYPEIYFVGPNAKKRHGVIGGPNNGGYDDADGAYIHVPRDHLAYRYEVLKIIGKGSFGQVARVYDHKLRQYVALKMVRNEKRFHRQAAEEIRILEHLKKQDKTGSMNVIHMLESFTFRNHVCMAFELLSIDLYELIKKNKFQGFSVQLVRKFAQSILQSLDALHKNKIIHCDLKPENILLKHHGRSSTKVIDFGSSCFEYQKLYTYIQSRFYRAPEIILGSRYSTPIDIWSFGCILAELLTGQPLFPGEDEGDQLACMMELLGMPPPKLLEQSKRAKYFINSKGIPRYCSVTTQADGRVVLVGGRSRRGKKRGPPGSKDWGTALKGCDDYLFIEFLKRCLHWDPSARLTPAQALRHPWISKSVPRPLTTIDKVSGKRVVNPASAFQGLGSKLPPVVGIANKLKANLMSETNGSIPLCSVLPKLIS
The experiment is described as follows: Inhibition of human DYRK3 at 18.6 nM by HotSpot assay relative to control.

The target of experiment [5] is Serine/threonine-protein kinase Nek6 (Homo sapiens) (UniProt Q9HC98). The experiment can be described thus: Inhibition of human NEK6 at 1.82 nM by HotSpot assay relative to control.
Experiment [6] has as its target Mitogen-activated protein kinase kinase kinase 9 (Homo sapiens) (UniProt P80192). The experiment is described as follows: Inhibition of human MAP3K9 at 1.82 nM by HotSpot assay relative to control.
The target of experiment [7] is TGF-beta receptor type-2 (Homo sapiens) (UniProt P37173). The experiment can be described thus: Inhibition of human TGFBR2 at 1.82 nM by HotSpot assay relative to control.
Experiment [8] has as its target T3, Mitogen-activated protein kinase kinase kinase 3 (Homo sapiens) (UniProt Q99759).
T3 sequence (whole entry): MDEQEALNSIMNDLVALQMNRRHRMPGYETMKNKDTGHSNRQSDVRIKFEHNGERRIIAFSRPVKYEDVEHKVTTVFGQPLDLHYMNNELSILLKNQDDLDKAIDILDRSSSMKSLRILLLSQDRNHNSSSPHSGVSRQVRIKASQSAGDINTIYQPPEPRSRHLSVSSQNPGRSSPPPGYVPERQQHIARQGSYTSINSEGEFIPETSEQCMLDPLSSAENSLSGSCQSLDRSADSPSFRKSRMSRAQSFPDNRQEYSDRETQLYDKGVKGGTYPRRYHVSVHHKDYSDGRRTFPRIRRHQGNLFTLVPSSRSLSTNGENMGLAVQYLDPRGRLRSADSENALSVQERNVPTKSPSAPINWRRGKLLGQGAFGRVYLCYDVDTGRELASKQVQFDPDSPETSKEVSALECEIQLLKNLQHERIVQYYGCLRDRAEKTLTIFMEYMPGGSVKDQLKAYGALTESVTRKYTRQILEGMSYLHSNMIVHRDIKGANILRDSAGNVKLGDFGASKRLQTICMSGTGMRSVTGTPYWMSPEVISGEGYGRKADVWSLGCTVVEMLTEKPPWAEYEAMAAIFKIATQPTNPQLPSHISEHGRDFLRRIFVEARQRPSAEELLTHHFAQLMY
The experiment can be described thus: Inhibition of human MEKK3 at 1.82 nM by HotSpot assay relative to control.

Chain of Serine/threonine-protein kinase Nek6 (Homo sapiens) (Q9HC98 whole entry): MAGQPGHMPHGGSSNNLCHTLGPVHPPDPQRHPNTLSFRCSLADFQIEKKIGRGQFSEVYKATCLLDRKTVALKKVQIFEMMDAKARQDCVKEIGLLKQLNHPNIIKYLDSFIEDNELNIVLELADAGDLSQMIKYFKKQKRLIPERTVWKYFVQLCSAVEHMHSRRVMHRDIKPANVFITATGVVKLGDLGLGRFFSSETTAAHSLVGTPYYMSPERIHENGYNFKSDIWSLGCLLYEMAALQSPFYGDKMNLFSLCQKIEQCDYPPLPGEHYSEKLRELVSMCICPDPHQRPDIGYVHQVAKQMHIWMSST
Chain of TGF-beta receptor type-2 (Homo sapiens) (P37173 whole entry): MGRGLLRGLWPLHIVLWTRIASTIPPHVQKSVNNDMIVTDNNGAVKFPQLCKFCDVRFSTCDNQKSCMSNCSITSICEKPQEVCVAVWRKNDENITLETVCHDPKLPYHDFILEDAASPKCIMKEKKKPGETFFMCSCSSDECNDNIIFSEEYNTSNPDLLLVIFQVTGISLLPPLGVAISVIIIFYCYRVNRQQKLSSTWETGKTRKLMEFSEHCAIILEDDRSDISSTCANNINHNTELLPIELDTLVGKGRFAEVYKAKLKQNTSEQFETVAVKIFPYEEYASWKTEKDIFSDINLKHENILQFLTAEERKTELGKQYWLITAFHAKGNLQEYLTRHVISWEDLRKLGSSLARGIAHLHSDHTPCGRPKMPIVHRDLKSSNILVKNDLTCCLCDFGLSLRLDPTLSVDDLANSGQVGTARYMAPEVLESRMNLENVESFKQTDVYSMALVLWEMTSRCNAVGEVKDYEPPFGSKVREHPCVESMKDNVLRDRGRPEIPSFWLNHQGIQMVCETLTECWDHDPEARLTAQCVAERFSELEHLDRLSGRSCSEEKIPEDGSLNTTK
Chain of Casein kinase I isoform alpha (Homo sapiens) (P48729 2-337 limits assumed): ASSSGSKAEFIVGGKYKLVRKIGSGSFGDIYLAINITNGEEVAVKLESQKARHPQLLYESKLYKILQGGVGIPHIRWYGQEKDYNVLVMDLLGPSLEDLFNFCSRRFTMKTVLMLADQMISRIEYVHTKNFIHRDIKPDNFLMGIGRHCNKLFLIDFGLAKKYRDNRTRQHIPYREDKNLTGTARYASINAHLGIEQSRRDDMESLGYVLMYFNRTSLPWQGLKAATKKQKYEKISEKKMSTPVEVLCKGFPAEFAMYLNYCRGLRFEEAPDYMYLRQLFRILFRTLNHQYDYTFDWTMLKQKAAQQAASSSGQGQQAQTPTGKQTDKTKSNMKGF
Chain of Mitogen-activated protein kinase kinase kinase 9 (Homo sapiens) (P80192 whole entry, looked up): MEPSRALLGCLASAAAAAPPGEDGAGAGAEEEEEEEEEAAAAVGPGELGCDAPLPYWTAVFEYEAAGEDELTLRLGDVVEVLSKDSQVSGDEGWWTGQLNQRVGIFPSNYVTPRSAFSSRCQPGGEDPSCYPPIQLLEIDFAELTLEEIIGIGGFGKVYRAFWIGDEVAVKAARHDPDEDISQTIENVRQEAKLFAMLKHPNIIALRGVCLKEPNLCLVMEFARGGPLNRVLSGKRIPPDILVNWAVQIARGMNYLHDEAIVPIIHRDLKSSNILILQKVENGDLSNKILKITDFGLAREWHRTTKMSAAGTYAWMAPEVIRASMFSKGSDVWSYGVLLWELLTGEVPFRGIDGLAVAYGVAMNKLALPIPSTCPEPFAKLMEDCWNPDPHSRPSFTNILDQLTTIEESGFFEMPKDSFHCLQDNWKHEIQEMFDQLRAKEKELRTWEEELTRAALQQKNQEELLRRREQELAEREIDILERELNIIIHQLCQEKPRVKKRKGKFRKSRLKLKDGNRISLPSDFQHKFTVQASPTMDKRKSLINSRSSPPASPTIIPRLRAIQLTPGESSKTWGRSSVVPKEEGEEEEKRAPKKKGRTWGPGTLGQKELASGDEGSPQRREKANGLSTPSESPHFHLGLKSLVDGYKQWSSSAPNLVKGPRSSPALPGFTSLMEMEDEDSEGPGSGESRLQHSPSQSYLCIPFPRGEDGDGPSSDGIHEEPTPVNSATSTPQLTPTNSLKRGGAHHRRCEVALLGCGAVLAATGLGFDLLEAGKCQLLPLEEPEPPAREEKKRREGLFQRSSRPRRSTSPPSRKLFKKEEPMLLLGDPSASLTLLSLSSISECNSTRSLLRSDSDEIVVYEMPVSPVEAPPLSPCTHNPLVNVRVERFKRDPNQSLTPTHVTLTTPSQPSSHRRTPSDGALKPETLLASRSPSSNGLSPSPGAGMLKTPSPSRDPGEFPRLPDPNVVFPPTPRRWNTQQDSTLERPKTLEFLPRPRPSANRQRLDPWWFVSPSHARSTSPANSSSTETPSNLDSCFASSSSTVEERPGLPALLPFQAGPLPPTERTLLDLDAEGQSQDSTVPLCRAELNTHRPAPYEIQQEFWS

The term inhibition denotes the change of the read-out against control, counted positive when it falls. Consider `C[C@]1(O)C[C@@H](c2nc(-c3ccc4ccc(-c5ccccc5)nc4c3)c3c(N)nccn32)C1`, for which the inhibition is -1.35% in experiment [1], 2.42% in experiment [2], 4.32% in experiment [3] and 3.01% in experiment [4].

For the molecule `C[C@@]1(C(=O)Nc2ccc(F)nc2)CCCN1c1nc(Nc2cc(C3CC3)n[nH]2)c2cccn2n1`, the inhibition in experiment [5] was 5.33%; in experiment [6], 2.63%; in experiment [7], 5.94%; in experiment [8], -2.8%.
